Reference: patent US7632870B2, “Composition based on substituted 1,3-diphenylprop-2-en-1-one derivatives, preparation and uses thereof” (Genfit, priority 2002, dated 2009)

Assays:
[1] = tested on: Apo E2/E2 transgenic mice; test: Effects on triglyceride and cholesterol metabolism in vivo
Method: Apo E2/E2 transgenic mice were kept on a 12-hour light/dark cycle at a constant temperature of 20±3° C. After a 1 week acclimation, the mice were weighed and divided into groups of 6 animals selected so that body weight would be uniformly distributed. The test compounds were suspended in carboxymethylcellulose and administered by intragastric gavage at the indicated doses, once a day for 7 or 8 days. Animals had access to food and water ad libitum. At the end of the experiment the animals were weighed and sacrificed under anesthesia. Blood was collected on EDTA. Plasma was prepared by centrifugation at 3000 rpm for 20 minutes. Liver samples were taken and stored frozen in liquid nitrogen for subsequent analysis.
Serum lipid concentrations (total cholesterol and free cholesterol, triglycerides and phospholipids) were determined by a colorimetric assay (Boehringer, Mannheim, Germany) according to the supplier's instructions. Serum concentrations of apolipoproteins AI, AII and CIII were determined as previously described (Raspe et al. J. Lipid Res. 40, 2099-2110, 1999, Asset G et al., Lipids, 34, 39-44, 1999).

PPARα = target: T1, PPARα (Homo sapiens, UniProt Q07869); test: PPARα/Gal4 transactivation system in RK13 cells (luciferase reporter); format: cell-based, rabbit; conditions: 24 hours
T1 construct: expressed in transfected cells; host or cells: RK13 cells
T1 sequence (Q07869 239-466 limits assumed): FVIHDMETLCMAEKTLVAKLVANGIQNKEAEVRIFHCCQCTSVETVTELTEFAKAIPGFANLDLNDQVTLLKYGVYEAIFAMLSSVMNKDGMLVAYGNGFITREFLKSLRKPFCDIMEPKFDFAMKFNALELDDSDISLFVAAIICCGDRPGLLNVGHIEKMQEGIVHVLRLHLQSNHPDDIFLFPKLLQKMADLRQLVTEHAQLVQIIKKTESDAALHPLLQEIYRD
Method: RK13 cells were incubated with the different compounds at concentrations of 10, 30 and 100 μM or 1, 10 and 100 μM for 24 hours. The results are expressed as the induction factor (luminescent signal relative to untreated cells) after the different treatments.
(§1) PPAR activation was tested in vitro in RK13 fibroblast cell lines by measuring the transcriptional activity of chimeras composed of the DNA binding domain of the yeast gal4 transcription factor and the ligand binding domain of the different PPARs. These latter results were then confirmed in cell lines according to the following protocols:
(§2) RK13 cells were from ECACC (Porton Down, UK) and were grown in DMEM medium supplemented with 10% (V/N) fetal calf serum, 100 U/ml penicillin (Gibco, Paisley, UK) and 2 mM L-glutamine (Gibco, Paisley, UK). The culture medium was changed every two days. Cells were kept at 37° C. in a humidified 95% air/5% CO2 atmosphere.
(§3) The plasmids pG5TkpGL3, pRL-CMV, pGal4-hPPRAα, pGal4-hPPRAγ and pGal4-φ have been described by Raspe, Madsen et al. (1999). The pGal4-mPPRAα and pGal4-hPPRAγ constructs were obtained by cloning into the pGal4-φ vector of PCR-amplified DNA fragments corresponding to the DEF domains of the human PPARα and PPRAγ nuclear receptors.
[…] At the end of the experiment, the cells were lysed (Gibco, Paisley, UK) and luciferase activity was determined with a Dual-Luciferase™ Reporter Assay System kit (Promega, Madison, Wis., USA) according to the supplier's instructions as previously described (Raspe, Madsen et al. 1999).

PPARγ = target: T2, PPARγ (Homo sapiens, UniProt P37231); test: PPARγ/Gal4 transactivation system in RK13 cells (luciferase reporter); format: cell-based; conditions: 24 hours
T2 construct: expressed in transfected cells; host or cells: RK13 cells
T2 sequence (P37231 238-503 limits assumed): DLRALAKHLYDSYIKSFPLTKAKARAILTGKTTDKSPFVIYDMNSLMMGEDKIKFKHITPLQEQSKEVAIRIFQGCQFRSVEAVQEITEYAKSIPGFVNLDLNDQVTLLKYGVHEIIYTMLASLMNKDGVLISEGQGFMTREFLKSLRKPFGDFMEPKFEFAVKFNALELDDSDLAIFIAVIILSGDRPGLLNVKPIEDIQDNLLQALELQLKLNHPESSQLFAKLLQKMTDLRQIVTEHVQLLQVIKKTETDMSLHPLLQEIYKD
Method: RK13 cells were incubated with the different compounds at concentrations of 1, 10 and 100 μM for 24 hours. The results are expressed as the induction factor (luminescent signal relative to untreated cells) after the different treatments.
as §1, §2, §3
RK13 cells were seeded in 24-well culture dishes at 5×10^4 cells/well and transfected for 2 hours with the reporter plasmid pG5TkpGL3 (50 ng/well), the expression vectors pGal4-φ, pGal4-mPPRAα, pGal4-hPPRAα, pGal4-hPPRAγ (100 ng/well) and the transfection efficiency control vector PRL-CMV (1 ng/well) according to the previously described protocol (Raspe, Madsen et al. 1999), then incubated for 36 hours with the test compounds. At the end of the experiment, the cells were lysed (Gibco, Paisley, UK) and luciferase activity was determined with a Dual-Luciferase™ Reporter Assay System kit (Promega, Madison, Wis., USA) according to the supplier's instructions as previously described (Raspe, Madsen et al. 1999).

LDL = test: Protection against LDL oxidation by copper (conjugated diene formation); format: biochemical; conditions: FIG. 1-3; compound at 10^-4M; copper alone 348
Method: LDL oxidation is an important alteration and plays a predominant role in the establishment and development of atherosclerosis (Jurgens, Hoff et al. 1987). […] Unless otherwise indicated, the reagents were from Sigma (St Quentin, France).
LDL were prepared according to the method described by Lebeau et al. (Lebeau, Furman et al. 2000).
The solutions of test compounds were prepared at 10^−2 M concentration in bicarbonate buffer (pH 9) and diluted in PBS to obtain final concentrations ranging from 0.1 to 100 μM for a total ethanol concentration of 1% (V/V).
Prior to oxidation, EDTA was removed from the LDL preparation by dialysis. Oxidation then took place at 30° C. by addition of 100 μl of 16.6 μM CuSO4 solution to 160 μL of LDL (125 μg protein/ml) and 20 μl of a test compound solution. The formation of dienes, the species under observation, was followed by measuring optical density at 234 nm in the samples treated with the compounds but in the presence or absence of copper. Optical density at 234 nm was measured every 10 minutes for 8 hours in a thermostated spectrophotometer (Tecan Ultra 380). The analyses were performed in triplicate. The compounds were considered to have antioxidant activity when they induced a longer lag phase and reduced the rate of oxidation and the amount of dienes formed in comparison with the control sample. […] FIGS. 1, 2 and 3 give an example of the results illustrating the antioxidant properties of compounds 2 and 5.

Row | SMILES | triglycerides in large sized lipoparticles (exclusion chromatography) ([1]; gavage 200 mg/kg for 7 days, FIG. 3-3) | cholesterol in large sized lipoparticles (exclusion chromatography) ([1]; gavage 200 mg/kg for 7 days, FIG. 3-4) | Induction factor (luminescent signal relative to untreated cells) (PPARα; 1 μM) | Induction factor (luminescent signal relative to untreated cells) (PPARα; 10 μM, listed as Cp17) | Induction factor (luminescent signal relative to untreated cells) (PPARγ; 1 μM) | Induction factor (luminescent signal relative to untreated cells) (PPARγ; 10 μM) | Induction factor (luminescent signal relative to untreated cells) (PPARγ; 10 μM, listed as Cp17) | Induction factor (luminescent signal relative to untreated cells) (PPARγ; 100 μM) | maximum amount of conjugated dienes formed (LDL) | triglycerides in large sized lipoparticles (exclusion chromatography) ([1]; 50 mg/kg/day for 8 days, FIG. 3-11) | cholesterol in large sized lipoparticles (exclusion chromatography) ([1]; 50 mg/kg/day for 8 days, FIG. 3-12) | Induction factor (luminescent signal relative to untreated cells) (PPARα; 1 μM, listed as Cp33) | Induction factor (luminescent signal relative to untreated cells) (PPARα; 10 μM, listed as Cp33) | Induction factor (luminescent signal relative to untreated cells) (PPARα; 100 μM, listed as Cp33) | Induction factor (luminescent signal relative to untreated cells) (PPARγ; 100 μM, listed as Cp33)
1 | Cc1cc(/C=C/C(=O)c2ccc(Cl)cc2)cc(C)c1OC(C)(C)C(=O)O [Compound 17, 1-[4-chlorophenyl]-3-[3,5-dimethyl-4-carboxydimethylmethyloxyphenyil]prop-2-en-1-one] | decreased | decreased | 79.76 | 85.69 | 15.37 | 25 | 24.92 | 6.13 | 327 nmol per mg of LDL | – | – | – | – | – | –
2 | CCCCCCOc1ccc(C(=O)/C=C/c2cc(C)c(OC(C)(C)C(=O)O)c(C)c2)cc1 [Compound 33, 1-[4-hexyloxyphenyl]-3-[3,5-dimethyl-4-carboxydimethylmethyloxyphenyl]prop-2-en-1-one] | – | – | – | – | 15.65 | 33.90 | – | 45.6 | – | decrease | decrease | 22.05 | 44.52 | 77.62 | 45.58
